Laboratory results reported in patent US20140295547A1, “METHOD TO CONSTRUCT IN-VITRO HUMAN BLOOD BRAIN BARRIER MODEL” (National Chung Cheng University, priority 2013, published 2014).

System: in-vitro human BBB model (HBMECs co-cultured with HBVPs and HAs)
Experiment: Permeability of propidium iodide across the in-vitro human BBB model
Format: in vitro ADME
Excerpt: The present invention uses HBMECs and different ratios of HBVPs and HAs to construct a BBB model and measures TEER and permeability of propidium iodide (PI) to evaluate the integrity and performance of the BBB model. The present invention also uses a fluorescent dye Calcein to detect the activity of P-gp. The present invention also detects the concentrations of the transforming growth factor-β1 (TGF-β1), the matrix. metalloproteinases (MMP-9), and the vascular endothelial growth factor (VEGF), which influence the integrity of the BBB model.
Refer to FIG. 1 and FIG. 2. […] In Step S10, defrost a plurality of small tubes of frozen cell-containing liquids via placing them in water having a temperature of 37° C. for 1 minute until all the frozen cell-containing liquids completely liquefy and become the suspension liquids of HBVPs, HAs and HBMECs. In Step S12, respectively suck the suspension liquids of HBVPs, HAs and HBMECs from the small tubes, respectively place the suspension liquids in pretreated culture plates, and culture the suspension liquids in a carbon-dioxide incubator having a temperature of 37° C. and a relative humidity of 95%. In Step S14, provide a pretreated culture dish 10 having a filter membrane 12 made of PET (polyethylene terephthalate); flip over the filter membrane 12; attach the suspension liquids of HBVPs and HAs by a ratio of 1:1, 1:2, or 1:6 to the bottom surface of the filter membrane 12 of the culture dish 10 to plant HBVPs 14 and HAs 16 on the bottom surface, wherein the time for attaching is 1 hour and the total planting density of HBVPs 14 and HAs 16 is 4×10^5 cells/cm^2. In Step S16, fill the suspension liquid of HBMECs into the top surface of the filter membrane 12 to plant HBMECs 18 on the top surface, wherein the planting density of HBMECs 18 is 4×10^5 cell/cm^2. […]

## CC[N+](C)(CC)CCC[n+]1c(-c2ccccc2)c2cc(N)ccc2c2ccc(N)cc21.[I-].[I-] [propidium iodide]
BBB model with HBVPs:HAs=1:1
  PI permeability in comparison with the BBB model with HBVPs:HAs=1:2: higher
BBB model with HBVPs:HAs=1:6
  PI permeability in comparison with the BBB model with HBVPs:HAs=1:2: higher
HBMECs co-cultured with HBVPs:HAs=1:2, condition medium PCM:ACM 1:1 for 7 days
  permeability of propidium iodide relative to that of a single layer of the cultured HBMECs: 39%
